The source of these data is PMC6452685, “Lysyl-tRNA synthetase as a drug target in malaria and cryptosporidiosis” (Proceedings of the National Academy of Sciences of the …, 2019).

Bounds are passed on as bounds.

A short description of data set [1]: Intrinsic clearance in mouse liver microsomes. In kind it is in vitro ADME. As for the experimental part: 4.4 Int r ins ic C le ar ance (CLi) experiments […]
(§1) HUE50H ). The procedure was carried out as reported prev i ous l y (15). […] Immediately, at time zero, then at 3, 6, 9, 15 and 30 min an aliquot ( 50 μl) o f the i ncubati on mi x ture was remov ed and mi x ed with acetonitrile (100 μl) contai ni ng i nternal s tandard to stop the reaction. […] XLfi t software (I DBS, Guildford UK) was used to cal cul ate the exponenti al decay and consequentl y the rate cons tant (ke-1) from the rati o of peak area of tes t compou nd to i nternal s tandard at each ti me poi nt .
The rate o f i ntri nsi c cl earance (CLi ) of each test compoun d was then cal cul ated usi ng the f ol l owi ng […]
CLi (ml /mi n/g li ver) = ke-1 x V x Microsomal protein yield […]
where V (ml/mg protein) is the incubation volume/mg protein added (0.5) and microsomal protein yield is taken as being 52.5 mg protein per g liver. Verapami l (0. 5 µ M ) w as us ed as a pos i t i v e cont rol to confirm ac ceptable assay performance. […]
Cryopreserved mouse (batch MC539) and huma n (batch HU E50H) hepatocytes were supplied by ThermoFi sher Sci enti fi c, Pai sl ey, UK and Xenotech, LLC, respectively. Cryopreserved hepatocytes were rapidly thawed in a pre-heat ed w at er bat h at 37 °C before ad di ng to 50 ml of pre-warmed CHRM medi a (ThermoFi sher Sci enti fi c, Paisley, UK) and mi xed gentl y. […] […] 5 mi l li on v i abl e cel l s /ml i n s uppl emented W ME. Onl y s us pens i ons whi ch ac hi ev ed >80% pos t-thaw viability were us ed i n ex peri ment s . […]
DMSO and 0.25 million cells/ml. […]

The target in another data set is CpKRS (Cryptosporidium parvum, UniProt Q5CR27). Briefly: Recombinant KRS thermal shift assay, CpKRS. In kind it is binding. The note with it: 40 µM inhibitor. As for the experimental part: (§2) 2.9 Recombin ant KR S thermal shift assays ( UW)
Sequence of CpKRS (Q5CR27 entry or part of it): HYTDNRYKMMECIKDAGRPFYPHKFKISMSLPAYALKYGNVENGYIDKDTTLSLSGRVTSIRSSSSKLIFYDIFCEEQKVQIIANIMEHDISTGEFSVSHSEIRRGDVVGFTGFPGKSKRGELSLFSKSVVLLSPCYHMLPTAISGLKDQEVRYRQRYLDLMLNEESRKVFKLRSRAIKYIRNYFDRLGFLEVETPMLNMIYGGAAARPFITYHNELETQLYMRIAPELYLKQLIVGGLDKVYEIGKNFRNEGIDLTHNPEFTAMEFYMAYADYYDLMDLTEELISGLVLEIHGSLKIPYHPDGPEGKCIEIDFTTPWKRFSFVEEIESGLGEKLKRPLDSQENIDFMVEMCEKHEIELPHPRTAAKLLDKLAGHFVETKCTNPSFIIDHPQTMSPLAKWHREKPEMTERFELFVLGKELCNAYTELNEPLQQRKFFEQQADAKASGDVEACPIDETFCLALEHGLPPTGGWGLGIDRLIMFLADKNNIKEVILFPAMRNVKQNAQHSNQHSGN
(§3) Recombi nant PfKRS1, CpKRS, and HsKRS were di l u ted to 4 µM in assay buffe r c ontaining 20 mM Tris-HC l pH 8, 200 mM NaC l , 5 mM DTT, 5 mM MgC l2 and l i gands (1 mM lysi ne; 40 µM ATP; and 40 µM inhibitors) in various combinations. Ali quot s (10 µl) were added to a 96-well PCR plate and incubated at ambi ent temperature for 15 mi n. SYPRO® Ora n g e dye (I nv itrog en) was di l uted i n ass ay buffer to a 5x concent rat i on a nd 1 0 µl was added to t he P C R pl at e t o bri ng t he fi nal as s ay v ol ume t o 20 µl. The pl at e w as s eal ed and pul s e cent ri fug ed t o cons ol i dat e t he as s ay mix t ure and remov e ai r bu bbl es .
(§4) Us i ng a StepOne Pl us RT-PCR thermal cycler (Ap plied Biosystems) to monitor fluorescence at a n excitation/emission wavelength of 300/470-570 nm, the samples were heated from 25° C to 99° C at a ramp rate of .016° C/sec. Graphpa d® P rism software (GraphPad S oftware, San Diego, CA) was used to determine melting temperatures (Tm) us i ng Bol tzmann s i g moi dal analys is .
(§5) Table S3. Thermal shift data for compounds with P fKRS1, Cp KRS a nd Hs KRS.
(§6) Com poun d Eff ects o n Lys R S M elti ng Tem pe ratu re ( ∆Tm) […]

Another data set deals with T1, HsKRS (Homo sapiens, UniProt Q15046).
T1 construct: HsKRS (full-length) proteins; 6xHis (N); made in house; host or cells: E. coli Rosetta BL21(DE3), vector pAVA0421 (UW); template pET28a-KRS
T1 sequence (Q15046 whole entry): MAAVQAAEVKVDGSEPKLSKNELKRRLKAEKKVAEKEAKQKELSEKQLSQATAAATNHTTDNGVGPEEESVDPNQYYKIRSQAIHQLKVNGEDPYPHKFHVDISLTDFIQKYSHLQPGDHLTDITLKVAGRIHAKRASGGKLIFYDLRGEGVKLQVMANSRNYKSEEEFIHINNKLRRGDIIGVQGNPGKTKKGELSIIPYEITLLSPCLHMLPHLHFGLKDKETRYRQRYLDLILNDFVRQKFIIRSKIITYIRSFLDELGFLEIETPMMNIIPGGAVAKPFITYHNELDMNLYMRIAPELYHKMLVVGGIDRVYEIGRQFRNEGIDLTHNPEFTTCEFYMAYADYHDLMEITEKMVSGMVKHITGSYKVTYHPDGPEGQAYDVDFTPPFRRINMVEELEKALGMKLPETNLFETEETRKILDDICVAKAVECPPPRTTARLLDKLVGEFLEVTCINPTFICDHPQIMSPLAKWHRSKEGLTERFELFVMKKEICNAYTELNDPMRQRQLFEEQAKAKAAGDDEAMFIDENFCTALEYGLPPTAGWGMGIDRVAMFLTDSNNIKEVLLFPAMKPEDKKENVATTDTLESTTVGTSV
Briefly: Recombinant KRS thermal shift assay, HsKRS. The note with it: 40 µM inhibitor. In kind it is binding. As for the experimental part:
as §2, §3, §4, §5, §6

A short description of the next data set: CHI logD. The class given is physicochemical. The note with it: reversed-phase HPLC (Luna C18 column), pH 7.4. Here is the method:
targets. Thi s can be determi ned by ei ther l og D or Log P measurements, whi ch are tradi ti onal ly qui te time consuming and require quite large amounts of com pound to determine accurately.
The CHI Log D assay, fi rst descri bed by Valkό et a l. (17), has been adapt ed and perfo rmed at pH 7. […] An ali quot (10 µl) i s then i njected onto a Luna C18 col umn (Phenomenex, Maccl esfi el d, UK, 4.6 x 150 mm) wi th 5 µ m pa rti cl e size. Mobil e phase A (MPA) i s 50 mM ammoni um acetate (pH 7.4) and mobi l e Phase B (MPB) i s MeCN. The LC system used was a Dionex Ultimate 3000 HLPC where 10 0% MPA was hel d for the i ni ti al 1.5 mi n of the run, then a l i near gradi ent to 0% MPA takes pl ace over the next 10 mi n bef ore being held there fo r a furthe r 2. 5 mi n bef ore re-eq uilibration back to 100% MPA at 14 min with data collection continuing until 1 5 mi n. Flow rate was 1 ml/mi n w i t h det ecti on at 25 4 nm U V and ambi ent t emperat ure.
The ret ent i on t i me (t R) of t he unk nown drug is interpolated from the slope and intercept created us i ng ret ent i on t i mes of s t andard mi x t ure c o mponent s cont ai ni ng paracet amol , t heophy l l i ne, caffei ne, benzi mi dazol e, col chi ci ne, carbamazepi ne, i ndol e, propi ophenone, b uty rophen one , valerophenone and hepatophenone (prepared at 10 µg/ml in MeCN:water [1/1, by v ol ume]), w hi ch cov ers the C HI l og D rang e from -1 t o 4. […]
4.4 Int r ins ic C le ar ance (CLi) experiments
as §1, with “The mous e an d h uman c ry opres erv ed he pat ocy t es w ere s uppl i ed by Xenot ech (bat ches M C 53 9 n a HUE50H ).” for “HUE50H ).”, “nt . […]” for “nt .”

A word on the ΔTm: it is the shift of the melting midpoint relative to a reference. Consider `O=C(NCC1CCCCC1)c1cc(=O)c2cc(F)ccc2o1` [Compound 3], for which, in data set [1], the “MLM CLi” value was 23 mL/min/g. Besides, the ΔTm at 40 µM on CpKRS (ATP + Lysine) is 0.8 °C; on CpKRS (ATP) it was 0.2 °C; on CpKRS (Lysine), 1.2 °C; at CpKRS (no substrate) it was -0.2 °C; at HsKRS (ATP + Lysine), -10.8 °C; at HsKRS (ATP), 0.4 °C. Further, the results for the ΔTm at 40 µM on HsKRS (Lysine) and at HsKRS (no substrate) were -8.4 °C and -0.1 °C, respectively.

In general, chromatographic logD refers to a lipophilicity value derived from retention on a column. Take `C[C@H]1CCC[C@H](C[C@H]2Cc3cc(O)cc(O)c3C(=O)O2)O1` [Compound 1, cladosporin, reference compound]: the “MLM CLi” value in data set [1] was determined as 20 mL/min/g. The compound further showed a chromatographic logD in the data set “CHI logD” of 2.4. Also, the shift in melting temperature (ΔTm) at 40 µM at CpKRS (ATP + Lysine) was 14 °C; on CpKRS (ATP) it was 0.1 °C; on CpKRS (Lysine), 19.5 °C; on CpKRS (no substrate), -0.1 °C; on HsKRS (ATP + Lysine), -8.2 °C; on HsKRS (ATP), 0.3 °C. Further, the ΔTm at 40 µM is -9.2 °C on HsKRS (Lysine) and -0.1 °C at HsKRS (no substrate).

On to `O=C(NCC1CCCCC1)c1cc(=O)c2ccccc2o1` [Compound 2], for which, in data set [1], the “MLM CLi” value was greater than 50 mL/min/g. In data set [1], the “Microsomal stability CLint” value was greater than 50 mL⋅min^−1⋅g^−1. Also, the chromatographic logD in “CHI logD” worked out at 2.9. Further, the ΔTm at 40 µM is 11.7 °C at CpKRS (ATP + Lysine); 0.7 °C on CpKRS (ATP); 19.3 °C on CpKRS (Lysine); 0 °C at CpKRS (no substrate); -8.6 °C on HsKRS (ATP + Lysine); 0.3 °C at HsKRS (ATP). Besides, the ΔTm at 40 µM on HsKRS (Lysine) was -10 °C; on HsKRS (no substrate), -0.3 °C.

Regarding `O=C(NCC1(O)CCC(F)(F)CC1)c1cc(=O)c2cc(F)ccc2o1` [Compound 5], in data set [1], the “MLM CLi” value was 1 mL/min/g. Besides, the “Microsomal stability CLint” value in data set [1] is listed as 1 mL⋅min^−1⋅g^−1. The chromatographic logD in “CHI logD” was found to be 1.7. Moreover, the ΔTm at 40 µM was 13 °C at CpKRS (ATP + Lysine); -0.2 °C on CpKRS (ATP); 14.7 °C at CpKRS (Lysine); -0.5 °C on CpKRS (no substrate); -7.4 °C on HsKRS (ATP + Lysine); 0.4 °C on HsKRS (ATP). Besides, the ΔTm at 40 µM at HsKRS (Lysine) was -7.6 °C; on HsKRS (no substrate) it was 0.3 °C.

Consider `O=C(NCC1(O)CCCCC1)c1cc(=O)c2cc(F)ccc2o1` [Compound 4], for which the “MLM CLi” value in data set [1] amounted to 3 mL/min/g. In addition, the ΔTm at 40 µM at CpKRS (ATP + Lysine) is 11.8 °C; on CpKRS (ATP), 0 °C; on CpKRS (Lysine) it was 18.4 °C; on CpKRS (no substrate) it was -0.2 °C; on HsKRS (ATP + Lysine), -7.2 °C; on HsKRS (ATP), -0.1 °C. In addition, the ΔTm at 40 µM is -7.4 °C at HsKRS (Lysine) and -0.5 °C on HsKRS (no substrate).
